Source: patent US6664419B1, “Method and device for purifying substances by means of crystallization” (Stockhausen GmbH & Co. KG, priority 1999, dated 2003)
Where two headings read alike, the source gives them in different places.

Experiment: Solubility limit of impurity in molten acrylic acid
Assay type: physicochemical
Text: In addition to other impurities, acrylic acid pre-purified by distillation may contain maleic acid, its anhydride, and phenothiazine which precipitate from the molten material at concentrations of more than 4% (maleic acid) and 1.5% (phenothiazine), respectively. The respective amounts of solid precipitating during a crystallization process as a result of surpassing the solubility limit can be inferred from the following Examples (Table 1 and 2).
The solubility of maleic acid in acrylic acid is about 4%. The residue (13.2 kg) contains 20.4% or 2.7 kg of maleic acid, 2.4 kg of which precipitates as a solid as a result of surpassing the solubility limit.

c1ccc2c(c1)Nc1ccccc1S2 [PTZ, phenothiazine]
solubility in acrylic acid (in acrylic acid melt / mother liquor, precipitates above this concentration): about 1.5%

O=C(O)/C=C\C(=O)O [maleic acid]
solubility in acrylic acid: about 4%
